Measurements as given in patent publication US20250388625A1, “CYCLOSPORINE ANALOGUES” (priority 2022, published 2025).
pKd: −log10 of the molar value.

Assays:
CypA = CypA (Homo sapiens, UniProt P62937); assay: biochemical; format: binding; details: for pKd / Max Response: SPR, Biacore, 25° C.
Method: CypA binding was carried out using surface plasmon resonance as described (Warne J Biol Chem. 2016 Feb. 26; 291 (9): 4356-73).
Surface Plasmon Resonance (SPR) using Biacore at 25° C. was used to study the binding interactions between CypA and various inhibitors. The SPR binding experiments used a duel flow cell with a blank reference. The sensor chip surface was initially activated with a mixture of N-hydroxysuccinimide (NHS,) and N-(3-dimethyl-aminopropyl)-N′-ethyl-carbodiimide hydrochloride (EDC) for 420 s with a flow rate of 10 μl/min on blank flow cell 1 in addition to flow cell 2.
CypA protein was diluted to a concentration of 50 μg/mL by the addition of 10 mM sodium acetate pH 5 solution before immobilisation and covalent attachment to the carboxy-methylated dextran matrix of the Biacore CM5 sensor chip. CypA was run against the surface for 420 s and then any unreacted surface was quenched by 420 s of ethanolamine.
Immobilisations were carried out in the presence of JW47 (Warne J Biol Chem. 2016 Feb. 26; 291 (9): 4356-73).
No regeneration stage was required if the dissociation time was sufficient.
Solvent correction was carried out in each experiment using 8 different DMSO dilutions as reference: 2.8%, 2.6%, 2.4%, 2.2%, 2%, 1.8%, 1.6% & 1.5%.
A 50/50 mixture of buffer and DMSO is required to include a wash cycle in the experiment.
50 μl of CypA (0.1 mg/ml)+40 μL of 10 mM sodium acetate pH5+10 μl of 600 μM of JW47 DMSO solution. This mixture was allowed to stand at room temperature for 10 mins prior to set-up in the injection rack.

IFITM3 [1] = biological target: T1, IFITM3 (Homo sapiens, UniProt Q01628); format: cell-based; design: treated with 10 ng/ml type 1 interferon (IFNβ) overnight to induce IFITM3 expression; endogenous in cells; host or cells: THP-1 (human monocytic cell line), IFNβ-treated
T1 sequence (Q01628 whole entry): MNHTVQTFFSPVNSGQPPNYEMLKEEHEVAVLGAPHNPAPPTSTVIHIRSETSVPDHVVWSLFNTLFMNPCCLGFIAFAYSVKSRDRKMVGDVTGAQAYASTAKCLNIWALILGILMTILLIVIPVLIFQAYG

Human stem cells (HSC) [2] = assay: Mean fluorescent intensity of transduced human stem cells (FIG. 7); format: cell-based; details: for overall performance as transduction enhancer in stem cells: Examples 5 and 6
Method: Here a different measurement was made of transgene expression using the cells from the same experiment as that above (Example 5). Rather than measuring the number of cells transduced (% infection) the mean fluorescent intensity (greenness of the transgene expressing cells) was measured.

U87 cells = assay: HIV-GFP infection of U87 cells (FIG. 2); format: cell-based; details: MOI 0.3, tested at 2.5, 5, or 10 μM
Method: Next, an experiment was performed in U87 cells. These cells differ from THP-1 in that they express IFITM3 and TRIM5. Thus only inhibitors with reduced CypA inhibition will rescue infection. This functionally tests whether the inhibitors have lost CypA inhibition, but retain IFITM3 inhibition.
U87 cells were infected at an MOI of 0.3 in the presence of DMSO (0.1% v/v) or inhibitors at 2.5, 5, or 10 μM (left bar to right bar for each indicated compound, respectively). Inhibition of IFITM3 raises infectivity. Unlike other inhibitors, BG147 gives maximal infection enhancement at the lowest concentration of 2.5 μM. Other molecules achieve maximal infection rescue at the highest concentration.

Human stem cells (HSC) [3] = assay: Cell viability of human stem cells (FIG. 5); details: compared with PS+LB treatment
Human stem cells (HSC) [4] = format: cell-based
IFITM3 [5] = biological target: T1, IFITM3; format: cell-based; design: treated with 10 ng/ml type 1 interferon (IFNβ) overnight to induce IFITM3 expression; endogenous in cells; host or cells: THP-1 (human monocytic cell line), IFNβ-treated; remark: listed apart in the source
IFITM3 [6] = biological target: T1, IFITM3; assay: IFITM3 levels by immunoblot in IFNβ-treated THP-1 cells (FIG. 9A); format: cell-based; design: treated with 10 ng/ml type 1 interferon (IFNβ) overnight to induce IFITM3 expression; endogenous in cells; host or cells: THP-1 (human monocytic cell line), IFNβ-treated; details: 5 μM, 6 hours; Actin loading control
Method: THP-1 cells (human monocytic cell line) were treated with […] Type I interferon (IFNβ) overnight to induce IFITM3 expression. […] Protein samples were harvested 6 hours later and the IFITM3 levels measured by immunoblot with Actin detected as a loading control. IFN induces IFITM3.

[7] = tested on: SARS-COV-2 (Alpha, Delta or Omicron isolates); assay: SARS-COV-2 replication in Calu-3 lung epithelial cells by RT-qPCR (FIG. 9B); format: cell-based
IFITM3 [8] = biological target: T1, IFITM3; format: cell-based; design: treated with 10 ng/ml type 1 interferon (IFNβ) overnight to induce IFITM3 expression; endogenous in cells; host or cells: THP-1 (human monocytic cell line), IFNβ-treated; remark: listed apart in the source

Sequence of CypA (P62937 whole entry): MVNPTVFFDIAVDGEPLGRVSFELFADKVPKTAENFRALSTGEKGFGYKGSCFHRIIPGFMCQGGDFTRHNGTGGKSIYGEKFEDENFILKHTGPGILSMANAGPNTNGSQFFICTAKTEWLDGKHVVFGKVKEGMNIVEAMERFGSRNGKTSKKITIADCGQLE

Compound	koff (CypA) [s⁻¹]	kon (CypA) [M⁻¹ s⁻¹]	pKd (CypA; Kd (Affinity))	pKd (CypA; Kd (Kinetics))	Max Response (CypA) [RU]	relative potency in rescue of infection (IFITM3 [1])	rescue of infection from the antiviral effect of IFN (IFITM3 [1])	overall performance as transduction enhancer in stem cells (Human stem cells (HSC) [2])	mean fluorescent intensity (greenness of transgene expressing cells) (Human stem cells (HSC) [2]; treatment with 2.5 μM BG147+PS+LB)	concentration giving maximal infection enhancement (U87 cells) [µM]	cell viability after treatment (Human stem cells (HSC) [3])	transduction enhancement (% infected human stem cells), first donor (Human stem cells (HSC) [4]; 48 hours post transduction, FIG. 4)	transduction enhancement (% infected human stem cells), second HSC donor (Human stem cells (HSC) [4]; 48 hours post transduction, FIG. 6)	combination effect on number of transduced cells (Human stem cells (HSC) [4]; BG147 at 2.5 μM with PS and LB, second HSC donor)	rescue of infection from IFN (% infected cells) (IFITM3 [5])	IFITM3 protein levels by immunoblot (IFITM3 [6])	inhibition of viral replication (E copies, fold change vs DMSO) [7]	fold rescue compared to inhibited baseline (IFITM3 [8]) [fold]
CC[C@@H]1NC(=O)[C@H]([C@H](O)[C@H](C)C/C=C/c2ccc(C(=O)OCCn3ccnc3)c3ccccc23)N(C)C(=O)[C@H](C(C)C)N(C)C(=O)[C@H](CC(C)C)N(C)C(=O)[C@H](CC(C)C)N(C)C(=O)[C@@H](C)NC(=O)[C@H](C)NC(=O)[C@H](CC(C)C)N(C)C(=O)[C@H](C(C)C)NC(=O)[C@H](CC(C)C)N(C)C(=O)CN(C)C1=O [BG147, 2-(1H-imidazol-1-yl)-ethyl-4-((4R,5R,E)-5-((2S,5S,11S,14S,17S,20S,23R,26S,29S,32S)-5-ethyl-11,17,26,29-tetraisobutyl-14,32-diisopropyl-1,7,10,16,20,23,25,28,31-nonamethyl-3,6,9,12,15,18,21,24,27,30,33-undecaoxo-1,4,7,10,13,16,19,22,25,28,31-undecaazacyclotritriacontan-2-yl)-5-hydroxy-4-methylpent-1-en-1-yl)-1-naphthoate]	0.0216	9750	5.28	5.65	14.0	more potent than CsH	rescue infection from the antiviral effect of IFN	performs best	greenest cells	2.5	viability is good	out performs other inhibitors and is as effective as state of the art transduction enhancer	out-performed other inhibitors including state of the art transduction enhancer combination of LB+PS	additive with PS and LB giving the best number of transduced (infected) cells	completely rescued infection from IFN			
CC[C@@H]1NC(=O)[C@H]([C@H](O)[C@H](C)C/C=C/c2ccc(C(=O)OCCn3ccnc3)cc2)N(C)C(=O)[C@H](C(C)C)N(C)C(=O)[C@H](CC(C)C)N(C)C(=O)[C@H](CC(C)C)N(C)C(=O)[C@@H](C)NC(=O)[C@H](C)NC(=O)[C@H](CC(C)C)N(C)C(=O)[C@H](C(C)C)NC(=O)[C@H](CC(C)C)N(C)C(=O)CN(C)C1=O [JW3-158, 2-(1H-imidazol-1-yl)ethyl-4-((4R,5R,E)-5-((2S,5S,11S,14S,17S,20S,23R,26S,29S,32S)-5-ethyl-11,17,26,29-tetraisobutyl-14,32-diisopropyl-1,7,10,16,20,23,25,28,31-nonamethyl-3,6,9,12,15,18,21,24,27,30,33-undecaoxo-1,4,7,10,13,16,19,22,25,28,31-undecaazacyclotritriacontan-2-yl)-5-hydroxy-4-methylpent-1-en-1-yl)benzoate]	0.00217	13400	5.74	6.80	27.0			not working so well			viability is good					most potent effect	inhibits Delta and Omicron replication to a greater extent than Alpha	29.2
